# Data reported in patent publication US20250295798A1, “LIGAND-DRUG CONJUGATE OF EXATECAN ANALOGUE, AND MEDICAL USE THEREOF” (BeiGene Switzerland GmbH, priority 2022, published 2025).
# Where a name gives a salt, the structure may show the parent alone.
# What was measured:
# [1] = test system: Calu-6; experiment: Compounds cellular killing in Calu-6; type: cell-based, human; settings: Homo sapiens, Calu-6, 6 days, Cell Titer-Glo
# Protocol: (§1) Seeding cells A375 (1E3/well) or Calu-6 (2E3/well) into 96-well plate (Greiner: 655090), 100 ul/well. Incubation at 37° C., 5% CO2, overnight.
# (§2) Adding the fresh growth-medium containing the varying concentrations of compounds, 50 ul/well.
# (§3) Incubation at 37° C., 5% CO2, 6 days.
# (§4) The cell viability detected by Cell Titer-Glo (Promega, G7573). Add 70 µL/well of CellTiter-Glo® Reagent in each well.
# (§5) Allow the plates to incubate at room temperature for 10 minutes to stabilize luminescent signal.
# (§6) Analyze with Microplate Reader.
# (§7) Seeding cells A375 ([…] or Calu-6 (2E3/well) into 96-well plate (Greiner: 655090), 100 ul/well. Incubation at 37° C., […], overnight.
# [2] = test system: A375; experiment: Compounds cellular killing in A375; type: cell-based, human; settings: Homo sapiens, A375, 6 days, Cell Titer-Glo
# Protocol: as §1, §2, §3, §4, §5, §6, §7
Structure (SMILES),"EC50 ([1]; Calu-6, […]) [nM]","Emax ([1]; Calu-6, […]) [%]","EC50 ([2]; A-375, […]) [nM]","Emax ([2]; A-375, […]) [%]",EC50 [1] [nM],EC50 ([2]; A-375) [nM],Emax ([2]; A-375) [%]
"CC[C@@]1(O)C(=O)OCc2c1cc1n(c2=O)Cc2c-1nc1cc(F)c(C)c3c1c2[C@@H](n1cc(CCCO)nn1)CC3 [Example 2-24, (1S,9S)-9-ethyl-5-fluoro-9-hydroxy-1-(4-(3-hydroxypropyl)-1H-1,2,3-triazol-1-yl)-4-methyl-1,2,3,9,12,15-hexahydro-10H,13H-benzo[de]pyrano[3′,4′:6,7]indolizino[1,2-b]quinoline-10,13-dione]",3.2,99.2,7.1,99.9,–,–,–
"CC[C@@]1(O)C(=O)OCc2c1cc1n(c2=O)Cc2c-1nc1cc(F)c(C)c3c1c2[C@@H](NC(=S)NCCO)CC3 [Example 2-25, 1-((1S,9S)-9-ethyl-5-fluoro-9-hydroxy-4-methyl-10,13-dioxo-2,3,9,10,13,15-hexahydro-1H,12H-benzo[de]pyrano[3′,4′:6,7]indolizino[1,2-b]quinolin-1-yl)-3-(2-hydroxyethyl)thiourea]",0.1,98.2,0.9,99.9,–,–,–
"CC[C@@]1(O)C(=O)OCc2c1cc1n(c2=O)Cc2c-1nc1cc(F)c(C)c3c1c2[C@@H](NC(=O)NCCO)CC3 [Example 2-26, 1-((1S,9S)-9-ethyl-5-fluoro-9-hydroxy-4-methyl-10,13-dioxo-2,3,9,10,13,15-hexahydro-1H,12H-benzo[de]pyrano[3′,4′:6,7]indolizino[1,2-b]quinolin-1-yl)-3-(2-hydroxyethyl)urea]",–,98.4,–,–,5.1,18.6,97.7
"CC[C@@]1(O)C(=O)OCc2c1cc1n(c2=O)Cc2c-1nc1cc3c(c4c1c2[C@@H](NC(=O)CO)CC4)OC(F)(F)O3 [Example 2-27, N-((1S,10S)-10-ethyl-5,5-difluoro-10-hydroxy-11,14-dioxo-2,3,10,11,14,16-hexahydro-1H,13H-benzo[de][1,3]dioxolo[4,5-g]pyrano[3′,4′:6,7]indolizino[1,2-b]quinolin-1-yl)-2-hydroxyacetamide]",3.9,99.5,10.7,99.5,–,–,–
"CC[C@@]1(O)C(=O)OCc2c1cc1n(c2=O)Cc2c-1nc1cc(OC)cc3c1c2[C@@H](NC(=O)CO)CC3 [Example 2-28, N-((1S,9S)-9-ethyl-9-hydroxy-5-methoxy-10,13-dioxo-2,3,9,10,13,15-hexahydro-1H,12H-benzo[de]pyrano[3′,4′:6,7]indolizino[1,2-b]quinolin-1-yl)-2-hydroxyacetamide]",7.4,98.7,13.8,98.8,–,–,–
"CC[C@@]1(O)C(=O)OCc2c1cc1n(c2=O)Cc2c-1nc1cc(F)c(F)c3c1c2[C@@H](NC(=O)CO)CC3 [Example 2-30, N-((1S,9S)-9-ethyl-4,5-difluoro-9-hydroxy-10,13-dioxo-2,3,9,10,13,15-hexahydro-1H,12H-benzo[de]pyrano[3′,4′:6,7]indolizino[1,2-b]quinolin-1-yl)-2-hydroxyacetamide]",0.7,98.9,1.2,98.9,–,–,–
"CC[C@@]1(O)C(=O)OCc2c1cc1n(c2=O)Cc2c-1nc1cc(F)cc3c1c2[C@@H](NC(=O)CO)CC3 [Example 2-31, N-((1S,9S)-9-ethyl-5-fluoro-9-hydroxy-10,13-dioxo-2,3,9,10,13,15-hexahydro-1H,12H-benzo[de]pyrano[3′,4′:6,7]indolizino[1,2-b]quinolin-1-yl)-2-hydroxyacetamide]",4.2,98.9,6.2,98.9,–,–,–
"CC[C@@]1(O)C(=O)OCc2c1cc1n(c2=O)Cc2c-1nc1cc(O)cc3c1c2[C@@H](NC(=O)CO)CC3 [Example 2-32, N-((1S,9S)-9-ethyl-5,9-dihydroxy-10,13-dioxo-2,3,9,10,13,15-hexahydro-1H,12H-benzo[de]pyrano[3′,4′:6,7]indolizino[1,2-b]quinolin-1-yl)-2-hydroxyacetamide]",81.5,93.7,368,93.7,–,–,–
"CC[C@@]1(O)C(=O)OCc2c1cc1n(c2=O)Cc2c-1nc1cc(F)c(Cl)c3c1c2[C@@H](NC(=O)C(C)(C)CO)CC3 [Example 2-34, N-((1S,9S)-4-chloro-9-ethyl-5-fluoro-9-hydroxy-10,13-dioxo-2,3,9,10,13,15-hexahydro-1H,12H-benzo[de]pyrano[3′,4′:6,7]indolizino[1,2-b]quinolin-1-yl)-3-hydroxy-2,2-dimethylpropanamide]",0.5,99.4,0.8,98.9,–,–,–
"CC[C@@]1(O)C(=O)OCc2c1cc1n(c2=O)Cc2c-1nc1cc3c(c4c1c2[C@@H](NC(=O)C(C)(C)CO)CC4)OCO3 [Example 2-35, N-((1S,10S)-10-ethyl-10-hydroxy-11,14-dioxo-2,3,10,11,14,16-hexahydro-1H,13H-benzo[de][1,3]dioxolo[4,5-g]pyrano[3′,4′:6,7]indolizino[1,2-b]quinolin-1-yl)-3-hydroxy-2,2-dimethylpropanamide]",0.2,98.6,1.6,100,–,–,–
"CC[C@@]1(O)C(=O)OCc2c1cc1n(c2=O)Cc2c-1nc1cc(F)c(C)c3c1c2[C@@H](NC(=O)[C@@H]1C[C@@H](O)CN1C)CC3 [Example 2-36, (2S,4R)—N-((1S,9S)-9-ethyl-5-fluoro-9-hydroxy-4-methyl-10,13-dioxo-2,3,9,10,13,15-hexahydro-1H,12H-benzo[de]pyrano[3′,4′:6,7]indolizino[1,2-b]quinolin-1-yl)-4-hydroxy-1-methylpyrrolidine-2-carboxamide]",6.2,97.7,13.9,97.8,–,–,–
"CC[C@@]1(O)C(=O)OCc2c1cc1n(c2=O)Cc2c-1nc1cc(F)c(C)c3c1c2[C@@H](NC(=O)[C@@H]1C[C@H](O)CN1C)CC3 [Example 2-37, (2S,4S)—N-((1S,9S)-9-ethyl-5-fluoro-9-hydroxy-4-methyl-10,13-dioxo-2,3,9,10,13,15-hexahydro-1H,12H-benzo[de]pyrano[3′,4′:6,7]indolizino[1,2-b]quinolin-1-yl)-4-hydroxy-1-methylpyrrolidine-2-carboxamide]",1.5,98.8,3.7,99.9,–,–,–
"CC[C@@]1(O)C(=O)OCc2c1cc1n(c2=O)Cc2c-1nc1cc(F)c(C)c3c1c2[C@@H](NC(=O)[C@@H]1C[C@H](O)CN1C(C)=O)CC3 [Example 2-38, (2S,4S)-1-acetyl-N-((1S,9S)-9-ethyl-5-fluoro-9-hydroxy-4-methyl-10,13-dioxo-2,3,9,10,13,15-hexahydro-1H,12H-benzo[de]pyrano[3′,4′:6,7]indolizino[1,2-b]quinolin-1-yl)-4-hydroxypyrrolidine-2-carboxamide]",12.9,96.4,30.9,98.7,–,–,–
"CC[C@@]1(O)C(=O)OCc2c1cc1n(c2=O)Cc2c-1nc1cc(F)c(C)c3c1c2[C@@H](NC(=O)C(C)(F)CO)CC3 (stereo partly drawn) [Example 2-41, N-((1S,9S)-9-ethyl-5-fluoro-9-hydroxy-4-methyl-10,13-dioxo-2,3,9,10,13,15-hexahydro-1H,12H-benzo[de]pyrano[3′,4′:6,7]indolizino[1,2-b]quinolin-1-yl)-2-fluoro-3-hydroxy-2-methylpropanamide]",0.6,98.2,1.5,99.9,–,–,–
"CC[C@@]1(O)C(=O)OCc2c1cc1n(c2=O)Cc2c-1nc1cc(F)c(C)c3c1c2C(CCCN)CC3 (stereo partly drawn) [Example 2-42, (9S)-1-(3-aminopropyl)-9-ethyl-5-fluoro-9-hydroxy-4-methyl-1,2,3,9,12,15-hexahydro-10H,13H-benzo[de]pyrano[3′,4′:6,7]indolizino[1,2-b]quinoline-10,13-dione formate]",2.8,99.2,20.7,99.6,–,–,–
"CC[C@@]1(O)C(=O)OCc2c1cc1n(c2=O)Cc2c-1nc1cc(F)cc3c1c2[C@@H](NC(=O)C(C)(C)CO)CC3 [Example 2-43, N-((1S,9S)-9-ethyl-5-fluoro-9-hydroxy-10,13-dioxo-2,3,9,10,13,15-hexahydro-1H,12H-benzo[de]pyrano[3′,4′:6,7]indolizino[1,2-b]quinolin-1-yl)-3-hydroxy-2,2-dimethylpropanamide]",1.1,99.2,3.6,100,–,–,–
"CC[C@@]1(O)C(=O)OCc2c1cc1n(c2=O)Cc2c-1nc1cc(F)c(C)c3c1c2C(CCO)CC3 (stereo partly drawn) [Example 2-46, (9S)-9-ethyl-5-fluoro-9-hydroxy-1-(2-hydroxyethyl)-4-methyl-1,2,3,9,12,15-hexahydro-10H,13H-benzo[de]pyrano[3′,4′:6,7]indolizino[1,2-b]quinoline-10,13-dione]",–,98.1,–,–,0.2,0.7,100
"CC[C@@]1(O)C(=O)OCc2c1cc1n(c2=O)Cc2c-1nc1cc(F)c(C)c3c1c2C(C(=O)N1CCC1CO)CC3 (stereo partly drawn) [Example 2-47, (9S)-9-ethyl-5-fluoro-9-hydroxy-1-(2-(hydroxymethyl)azetidine-1-carbonyl)-4-methyl-1,2,3,9,12,15-hexahydro-10H,13H-benzo[de]pyrano[3′,4′:6,7]indolizino[1,2-b]quinoline-10,13-dione]",1.8,99.5,6.7,99.7,–,–,–
